Assay results published in PubChem BioAssay AID248 (DTP/NCI, 2004).
Inconclusive results and toxic doses are left out.

Test system: L1210 leukemia ip in BDF1 mice, survival T/C
Assay: NCI In Vivo Anticancer Drug Screen. Data for tumor model L1210 Leukemia (intraperitoneal) in B6D2F1 (BDF1) mice
Settings: endpoint: mean survival time, higher = longer survival
In short: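 Transplantable tumor model; survival measured in treated vs vehicle control mice. Value = treated/control.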

[1] = dose: 100.0 mg/kg/injection, schedule: Q01DX001 (ip), vehicle: other
[2] = dose: 200.0 mg/kg/injection, schedule: Q01DX001 (ip), vehicle: other
[3] = dose: 400.0 mg/kg/injection, schedule: Q01DX001 (ip), vehicle: other
[4] = dose: 100.0 mg/kg/injection, schedule: Q01DX001 (ip), vehicle: carboxymethylcellulose (CMC)
[5] = dose: 200.0 mg/kg/injection, schedule: Q01DX001 (ip), vehicle: carboxymethylcellulose (CMC)
[6] = dose: 400.0 mg/kg/injection, schedule: Q01DX001 (ip), vehicle: carboxymethylcellulose (CMC)
[7] = dose: 100.0 mg/kg/injection, schedule: Q04DX003 (ip), vehicle: saline
[8] = dose: 200.0 mg/kg/injection, schedule: Q04DX003 (ip), vehicle: saline
[9] = dose: 400.0 mg/kg/injection, schedule: Q04DX003 (ip), vehicle: saline
[10] = dose: 100.0 mg/kg/injection, schedule: Q01DX001 (ip), vehicle: saline
[11] = dose: 200.0 mg/kg/injection, schedule: Q01DX001 (ip), vehicle: saline
[12] = dose: 400.0 mg/kg/injection, schedule: Q01DX001 (ip), vehicle: saline
[13] = dose: 100.0 mg/kg/injection, schedule: Q04DX003 (ip), vehicle: Klucel (hydroxypropylcellulose) (HPC)
[14] = dose: 200.0 mg/kg/injection, schedule: Q04DX003 (ip), vehicle: Klucel (hydroxypropylcellulose) (HPC)
[15] = dose: 400.0 mg/kg/injection, schedule: Q04DX003 (ip), vehicle: Klucel (hydroxypropylcellulose) (HPC)

O=C(Cc1ccccn1)NCCc1ccccc1
T/C (dose: 75.0 mg/kg/injection, schedule: Q01DX009 (ip), vehicle: saline): 93 % of control | T/C (dose: 75.0 mg/kg/injection, schedule: Q04DX003 (ip), vehicle: saline): 108 % of control | T/C (dose: 150.0 mg/kg/injection, schedule: Q01DX009 (ip), vehicle: saline): 94 % of control | T/C (dose: 150.0 mg/kg/injection, schedule: Q04DX003 (ip), vehicle: saline): 108 % of control | T/C (dose: 300.0 mg/kg/injection, schedule: Q04DX003 (ip), vehicle: saline): 90 % of control

CC(=O)Nc1c(Cc2cc(O)c3ncccc3c2NC(C)=O)cc(O)c2ncccc12
T/C (dose: 75.0 mg/kg/injection, schedule: Q01DX001 (ip), vehicle: other): 96 % of control | T/C (dose: 150.0 mg/kg/injection, schedule: Q01DX001 (ip), vehicle: other): 100 % of control | T/C (dose: 300.0 mg/kg/injection, schedule: Q01DX001 (ip), vehicle: other): 103 % of control

CN(C(N)=O)c1c(O)nc(N)[nH]c1=O
T/C (dose: 25.0 mg/kg/injection, schedule: Q01DX009 (ip), vehicle: water): 98 % of control | T/C (dose: 50.0 mg/kg/injection, schedule: Q01DX009 (ip), vehicle: water): 98 % of control | T/C (dose: 50.0 mg/kg/injection, schedule: Q04DX003 (ip), vehicle: water): 108 % of control | T/C (dose: 100.0 mg/kg/injection, schedule: Q01DX009 (ip), vehicle: water): 102 % of control | T/C (dose: 100.0 mg/kg/injection, schedule: Q04DX003 (ip), vehicle: water): 97 % of control | T/C (dose: 150.0 mg/kg/injection, schedule: Q01DX009 (ip), vehicle: water): 105 % of control | T/C (dose: 200.0 mg/kg/injection, schedule: Q04DX003 (ip), vehicle: water): 90 % of control

CCN(CC)C(=S)[S][Bi]([S]C(=S)N(CC)CC)[S]C(=S)N(CC)CC
T/C (dose: 100.0 mg/kg/injection, schedule: Q01DX001 (ip), vehicle: steriod suspending solution): 112 % of control | T/C (dose: 200.0 mg/kg/injection, schedule: Q01DX001 (ip), vehicle: steriod suspending solution): 91 % of control | T/C (dose: 400.0 mg/kg/injection, schedule: Q01DX001 (ip), vehicle: steriod suspending solution): 96 % of control

CC(C)CCC[C@@H](C)[C@H]1CC[C@H]2[C@@H]3CC[C@H]4C[C@H](NC(=O)N(CCF)N=O)CC[C@]4(C)[C@H]3CC[C@]12C
T/C (dose: 8.0 mg/kg/injection, schedule: Q01DX001 (ip), vehicle: other): 102 % of control | T/C (dose: 16.0 mg/kg/injection, schedule: Q01DX001 (ip), vehicle: other): 103 % of control | T/C (dose: 31.0 mg/kg/injection, schedule: Q01DX001 (ip), vehicle: other): 108 % of control | T/C (dose: 62.0 mg/kg/injection, schedule: Q01DX001 (ip), vehicle: other): 116 % of control | T/C (dose: 250.0 mg/kg/injection, schedule: Q01DX001 (ip), vehicle: other): 116 % of control | T/C (dose: 375.0 mg/kg/injection, schedule: Q01DX001 (ip), vehicle: other): 122 % of control | T/C (dose: 500.0 mg/kg/injection, schedule: Q01DX001 (ip), vehicle: other): 124 % of control | T/C (dose: 750.0 mg/kg/injection, schedule: Q01DX001 (ip), vehicle: other): 170 % of control | T/C (dose: 1000.0 mg/kg/injection, schedule: Q01DX001 (ip), vehicle: other): 153 % of control | T/C (dose: 1500.0 mg/kg/injection, schedule: Q01DX001 (ip), vehicle: other): 188 % of control | T/C (dose: 2000.0 mg/kg/injection, schedule: Q01DX001 (ip), vehicle: other): 202 % of control | T/C (dose: 2500.0 mg/kg/injection, schedule: Q01DX001 (ip), vehicle: other): 252 % of control

CCOC(=O)C(C(=O)CC)C(COC)C(=O)OC (stereo unspecified)
T/C [1]: 92 % of control | T/C [2]: 96 % of control | T/C [3]: 97 % of control

COc1cc(C(O)c2nccc3cc(OC)c(OC)cc23)c([N+](=O)[O-])cc1OC (stereo unspecified)
T/C (dose: 75.0 mg/kg/injection, schedule: Q01DX001 (ip), vehicle: saline): 111 % of control | T/C (dose: 150.0 mg/kg/injection, schedule: Q01DX001 (ip), vehicle: saline): 106 % of control | T/C (dose: 300.0 mg/kg/injection, schedule: Q01DX001 (ip), vehicle: saline): 101 % of control

COC(=O)CCc1nc(N)nc(N)n1
T/C (dose: 50.0 mg/kg/injection, schedule: Q01DX001 (ip), vehicle: carboxymethylcellulose (CMC)): 98 % of control | T/C [4]: 90 % of control | T/C [5]: 101 % of control | T/C [6]: 90 % of control

COc1ccc(C2NC(=S)N3C(c4ccc(OC)c(OC)c4)NC(=S)N23)cc1OC (stereo unspecified)
T/C (dose: 100.0 mg/kg/injection, schedule: Q01DX009 (ip), vehicle: gum acacia): 88 % of control | T/C (dose: 100.0 mg/kg/injection, schedule: Q04DX003 (ip), vehicle: gum acacia): 95 % of control | T/C (dose: 200.0 mg/kg/injection, schedule: Q01DX009 (ip), vehicle: gum acacia): 88 % of control | T/C (dose: 200.0 mg/kg/injection, schedule: Q04DX003 (ip), vehicle: gum acacia): 89 % of control | T/C (dose: 400.0 mg/kg/injection, schedule: Q01DX009 (ip), vehicle: gum acacia): 90 % of control

O=S(=O)([O-])CC[n+]1ccc(-c2ccccc2)o1
T/C [4]: 94 % of control | T/C [7]: 110 % of control | T/C [5]: 97 % of control | T/C [8]: 103 % of control | T/C [6]: 97 % of control | T/C [9]: 118 % of control

O=C(O)C(c1ccccc1)S(=O)(=O)C(C(=O)O)c1ccccc1 (stereo unspecified)
T/C [10]: 95 % of control | T/C [11]: 101 % of control | T/C [12]: 95 % of control

CC12CCC(O)CC1CCC1C2CCC2(C)C(C(=O)O)CCC12 (stereo unspecified)
T/C (dose: 100.0 mg/kg/injection, schedule: Q04DX002 (ip), vehicle: gum acacia): 99 % of control | T/C (dose: 200.0 mg/kg/injection, schedule: Q04DX002 (ip), vehicle: gum acacia): 86 % of control | T/C (dose: 400.0 mg/kg/injection, schedule: Q04DX002 (ip), vehicle: gum acacia): 89 % of control

CNC1C(OC2C(OC)OC(C)C2(O)CO)OC(CO)C(O)C1O (stereo unspecified)
T/C [7]: 110 % of control | T/C [8]: 97 % of control | T/C [9]: 97 % of control

CC(=O)OC1CC2(Cl)CC1(Cl)C(Cl)=C2Cl (stereo unspecified)
T/C (dose: 50.0 mg/kg/injection, schedule: Q04DX003 (ip), vehicle: saline with Tween-80): 105 % of control | T/C [1]: 109 % of control | T/C (dose: 100.0 mg/kg/injection, schedule: Q04DX003 (ip), vehicle: saline with Tween-80): 106 % of control | T/C [2]: 100 % of control | T/C [3]: 109 % of control | T/C (dose: 400.0 mg/kg/injection, schedule: Q04DX003 (ip), vehicle: saline with Tween-80): 103 % of control

CCOc1cccc(OCC)c1C
T/C [13]: 97 % of control | T/C [14]: 94 % of control | T/C [15]: 101 % of control

O=C(O)C(SC(C(=O)O)c1ccccc1)c1ccccc1 (stereo unspecified)
T/C (dose: 75.0 mg/kg/injection, schedule: Q04DX003 (ip), vehicle: saline with Tween-80): 94 % of control | T/C [10]: 93 % of control | T/C (dose: 150.0 mg/kg/injection, schedule: Q04DX003 (ip), vehicle: saline with Tween-80): 96 % of control | T/C [11]: 104 % of control | T/C (dose: 300.0 mg/kg/injection, schedule: Q04DX003 (ip), vehicle: saline with Tween-80): 104 % of control | T/C [12]: 98 % of control

O=C(O)c1cnc(Cl)nc1Nc1ccccc1I
T/C (dose: 6.25 mg/kg/injection, schedule: Q01DX009 (ip), vehicle: saline with Tween-80): 93 % of control | T/C (dose: 12.5 mg/kg/injection, schedule: Q01DX001 (ip), vehicle: saline with Tween-80): 90 % of control | T/C (dose: 12.5 mg/kg/injection, schedule: Q01DX009 (ip), vehicle: saline with Tween-80): 88 % of control | T/C (dose: 25.0 mg/kg/injection, schedule: Q01DX001 (ip), vehicle: saline with Tween-80): 90 % of control

CCCCCCCCCCCCCCCCOc1ccc(C(=S)N2CCOCC2)cc1Cl
T/C [13]: 104 % of control | T/C [14]: 91 % of control | T/C [15]: 86 % of control

COC(c1ccccc1)(c1ccccc1)N(C)C
T/C (dose: 50.0 mg/kg/injection, schedule: Q01DX001 (ip), vehicle: saline): 97 % of control | T/C [10]: 105 % of control | T/C [11]: 97 % of control | T/C [12]: 94 % of control
